Laboratory results: US20220229063A1, “FLUORESCENT COMPOUND WITH CYANURIC-HYDROXIDE AND PREPARATION METHOD THEREOF” (Bioacts Corporation, priority 2021, published 2022)

Assay: Comparison of fluorescent values at the same absorption wavelength of compound 2-1 and compound 2-2
Assay type: physicochemical
Description: In order to confirm an increase in fluorescent intensity by introducing triazine substituted with a hydroxyl group shown in the compound 3-3 as a linker, the following comparative experiment was conducted.
The compound 2-1 was dissolved in DMF at a concentration of 10 mg/ml and then 5 μl of the compound 2-1 was added to 5 ml of PBS at room temperature, and 5 μl of the compound 2-2 was added to 5 mL of PBS at the same concentration in the same manner. The absorption was measured by adding 2 mL of two samples by 1 mL of PBS and the fluorescence was measured even after diluting the compounds.
In FIGS. 1 and 2, the numerical values of ½ and ¼ indicate that the initial concentration was diluted.

increase in fluorescence intensity (compared to compound 2-1, at a concentration representing the same absorption intensity, DMF stock 10 mg/ml diluted in PBS, room temperature): ≥ 162%
Compound: CC1(CCCCCC(=O)NCCCNc2nc(O)nc(NCCCCCC(=O)ON3C(=O)CCC3=O)n2)C(/C=C/C=C/C=C2/N(CCCS(=O)(=O)O)c3ccc(S(=O)(=O)O)cc3C2(C)C)=[N+](CCCS(=O)(=O)O)c2ccc(S(=O)(=O)[O-])cc21 (centres unmarked) [Compound 2-2]
fluorescence intensity as compared to the compound 2-1 (single dye form, in PBS, initial concentration and 1/2, 1/4 dilutions): the higher the concentration, the higher the fluorescence intensity
